Where two headings read alike, the source gives them in different places.
Key:
human H3 receptor = molecular target: T1, human H3 receptor (Homo sapiens, UniProt Q9Y5N1); test: Human H3 radioligand binding ([3H]-N-alpha-methylhistamine, SPA)
T1 construct: expressed in transfected cells
In short: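 SPA competition binding on membranes from CHO cells stably expressing human H3 receptor (10 μg protein/well) with ~1 nM [3H]-N-alpha-methylhistamine and compound at 0.01 nM-30 μM. Incubation 4 h at room temperature in 50 mM Tris-HCl pH 7.4, 5 mM MgCl2, 0.1% BSA; non-specific binding defined with 10 μM clobenpropit.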

[1] = molecular target: T2, rat histamine H3 receptor (Rattus norvegicus, UniProt Q9QYN8); test: Rat H3 radioligand binding ([3H]-N-alpha-methylhistamine, SPA)
T2 construct: encoding the entire 445-amino-acid rat histamine H3 receptor; expressed in transfected cells; membrane preparation
T2 sequence (Q9QYN8 whole entry): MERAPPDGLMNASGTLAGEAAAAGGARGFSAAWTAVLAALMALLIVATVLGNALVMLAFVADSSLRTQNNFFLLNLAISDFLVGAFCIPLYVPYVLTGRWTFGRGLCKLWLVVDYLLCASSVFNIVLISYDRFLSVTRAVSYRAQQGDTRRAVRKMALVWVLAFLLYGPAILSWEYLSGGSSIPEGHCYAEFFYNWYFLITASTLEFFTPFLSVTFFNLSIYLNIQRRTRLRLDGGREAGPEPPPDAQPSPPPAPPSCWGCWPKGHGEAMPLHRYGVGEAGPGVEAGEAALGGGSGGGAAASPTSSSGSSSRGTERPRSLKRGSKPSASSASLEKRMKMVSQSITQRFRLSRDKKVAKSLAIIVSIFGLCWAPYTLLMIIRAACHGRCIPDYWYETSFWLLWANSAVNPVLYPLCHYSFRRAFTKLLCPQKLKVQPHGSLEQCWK
In short: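 Membranes from CHO-A3 cells stably expressing full-length rat H3 receptor (10 μg protein/well) incubated 4 h at room temperature, protected from light, with ~1 nM [3H]-N-alpha-methylhistamine and compound (0.01 nM-30 μM) in 50 mM Tris HCl pH 7.4, 5 mM MgCl2, 0.1% BSA. Binding read by SPA; 10 μM clobenpropit defined non-specific binding.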

[2] = Human H3 binding, Table B, Examples 136-362, read-out: hum H3 binding Ki
[3] = Rat H3 binding, Table B, Examples 136-362, read-out: rat H3 binding Ki
[4] = Table C, human H3 binding, read-out: Human H3 Ki
[5] = Table C, rat H3 binding, read-out: Rat H3 Ki
[6] = human H3 binding, Table D, read-out: Human H3 Ki
[7] = rat H3 binding, Table D, read-out: Rat H3 Ki

T1 sequence (Q9Y5N1 whole entry): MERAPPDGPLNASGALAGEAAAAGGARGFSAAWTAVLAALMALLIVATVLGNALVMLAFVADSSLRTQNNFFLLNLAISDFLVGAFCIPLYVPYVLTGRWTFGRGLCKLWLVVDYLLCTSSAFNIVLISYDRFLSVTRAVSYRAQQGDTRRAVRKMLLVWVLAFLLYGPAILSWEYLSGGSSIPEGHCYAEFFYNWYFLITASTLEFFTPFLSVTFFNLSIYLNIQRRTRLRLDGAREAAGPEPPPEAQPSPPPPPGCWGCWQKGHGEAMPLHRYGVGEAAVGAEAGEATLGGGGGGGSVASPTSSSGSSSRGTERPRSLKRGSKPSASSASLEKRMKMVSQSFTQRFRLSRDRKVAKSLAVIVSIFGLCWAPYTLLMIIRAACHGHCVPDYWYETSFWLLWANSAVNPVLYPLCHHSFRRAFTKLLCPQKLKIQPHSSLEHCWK

For `O=c1ccc(CCc2ccc3c(c2)COC2(CCN(C4CCC4)CC2)O3)c[nH]1` [Example 528], which Ki (human H3 receptor; read-out: Human H3 Ki) is on record?
The Ki was less than 200 nM.

What about the Ki ([1]; read-out: Rat H3 kI) of the same molecule?
The Ki was less than 200 nM.

What about the melting point of the same molecule?
The melting point was 183 to 185 °C.

With `CNC(=O)c1ccc(-c2ccc3c(c2)CCC2(CCN(C4CCC4)CC2)O3)cn1` [Example 156] as the molecule, how does the Ki (human H3 receptor; [2]) read?
The Ki was less than 200 nM.

What about the Ki [1, 3] of the same molecule?
Its Ki is less than 200 nM.

What about the melting point of the same molecule?
Its melting point is 67 to 69 °C.

For `O=S1(=O)CCC(C(O)c2ccc3c(c2)COC2(CCN(C4CCC4)CC2)O3)CC1` (stereo not drawn) [Example 511], which Ki (human H3 receptor; read-out: Human H3 Ki) is on record?
The Ki was less than 200 nM.

What about the Ki ([1]; read-out: Rat H3 kI) of the same molecule?
The Ki was less than 200 nM.

What about the melting point of the same molecule?
The melting point was 127 to 129 °C.

For `O=S1(=O)CCN(c2ccc3c(c2)COC2(CCN(C4CCC4)CC2)O3)CC1` [Example 421], which Ki (human H3 receptor; [4]) is on record?
Its Ki is less than 200 nM.

What about the Ki [1, 5] of the same molecule?
The Ki was less than 200 nM.

What about the melting point of the same molecule?
The melting point was 157 to 158 °C.

With `c1cc(CNc2ccc3c(c2)COC2(CCN(C4CCC4)CC2)O3)cs1` [Example 336] as the molecule, how does the Ki (human H3 receptor; [2]) read?
Its Ki is less than 200 nM.

And the Ki [1, 3]?
The Ki was less than 200 nM.

What about the melting point of the same molecule?
Its melting point is 101 to 102 °C.

Which Ki (human H3 receptor; [6]) does the source give for `O=C(O)C1CCCN(c2ccc3c(c2)COC2(CCN(C4CCC4)CC2)O3)C1` (stereo not drawn) [Example 614] here?
The Ki was 200 to 1000 nM.

And the Ki [1, 7]?
Its Ki is 200 to 1000 nM.

What about the melting point of the same molecule?
Its melting point is 84 to 86.4 °C.

With `CC(=O)NC1CCN(c2ccc3c(c2)COC2(CCN(C4CCC4)CC2)O3)CC1` [Example 328] as the molecule, how does the Ki (human H3 receptor; [2]) read?
Its Ki is less than 200 nM.

What about the Ki [1, 3] of the same molecule?
The Ki was less than 200 nM.

What about the melting point of the same molecule?
Its melting point is 190.8 to 192 °C.

Which results are given for `Cc1cc(=O)[nH]c(C)c1-c1ccc2c(c1)COC1(CCN(C3CCC3)CC1)O2` [Example 806]?
Ki (human H3 receptor; [6]): < 200 nM; Ki [1, 7]: < 200 nM; melting point: 247 to 249 °C

For `CC(C)(C)OC(=O)N1CCC(Oc2ccc3c(c2)CCC2(CCN(C4CCC4)CC2)O3)CC1` [Example 417, 1′-cyclobutyl-6-(piperidine-1-carboxylic acid tert-butyl ester-4-yloxy)-3,4-dihydro spiro-[2H-benzopyran-2,4′-piperidine]], which Ki (human H3 receptor; [4]) is on record?
Its Ki is less than 200 nM.

And the Ki [1, 5]?
The Ki was less than 200 nM.

And the melting point?
The melting point was 118 to 120 °C.

With `N#Cc1ccc(Oc2ccc3c(c2)CCC2(CCN(C4CCC4)CC2)O3)cc1` [Example 223] as the molecule, how does the Ki (human H3 receptor; [2]) read?
Its Ki is less than 200 nM.

And the Ki [1, 3]?
Its Ki is less than 200 nM.

And the melting point?
Its melting point is 237 to 239 °C.

Which Ki (human H3 receptor; read-out: Human H3 Ki) does the source give for `O=C1CCCN1CCOc1ccc2c(c1)CCC1(CCN(C3CCC3)CC1)O2` [Example 458] here?
The Ki was less than 200 nM.

And the Ki ([1]; read-out: Rat H3 kI)?
Its Ki is less than 200 nM.

And the melting point?
The melting point was 170 to 172 °C.

For `O=C1CCCN1c1ccc2c(c1)COC1(CCN(C3CCC3)CC1)O2` [Example 78], which Ki (human H3 receptor; Table A, human H3 binding, read-out: Human Ki) is on record?
The Ki was less than 200 nM.

And the Ki ([1]; Table A, rat H3 binding, read-out: Rat Ki)?
Its Ki is 200 to 1000 nM.

What about the melting point of the same molecule?
Its melting point is 187 to 188 °C.

Which Ki (human H3 receptor; [2]) does the source give for `O=C(c1ccc(-c2ccc3c(c2)COC2(CCN(C4CCC4)CC2)O3)cc1)N1CCC[C@@H](O)C1` [Example 201] here?
The Ki was less than 200 nM.

What about the Ki [1, 3] of the same molecule?
The Ki was less than 200 nM.

And the melting point?
Its melting point is 85 to 87 °C.

Which Ki (human H3 receptor; read-out: Human H3 Ki) does the source give for `C1=C(c2ccc3c(c2)COC2(CCN(C4CCC4)CC2)O3)CCOC1` [Example 478] here?
The Ki was less than 200 nM.

And the Ki ([1]; read-out: Rat H3 kI)?
The Ki was less than 200 nM.

What about the melting point of the same molecule?
Its melting point is 168 to 169 °C.

Which Ki (human H3 receptor; read-out: Human H3 Ki) does the source give for `CCOC(=O)C1CCC(Oc2ccc3c(c2)CCC2(CCN(C4CCC4)CC2)O3)CC1` (stereo not drawn) [Example 456] here?
The Ki was less than 200 nM.

What about the Ki ([1]; read-out: Rat H3 kI) of the same molecule?
Its Ki is less than 200 nM.

What about the melting point of the same molecule?
The melting point was 236 to 238 °C.

With `Cc1ccncc1-c1ccc2c(c1)COC1(CCN(C3CCC3)CC1)O2` [Example 745] as the molecule, how does the Ki (human H3 receptor; [6]) read?
Its Ki is less than 200 nM.

And the Ki [1, 7]?
The Ki was less than 200 nM.

What about the melting point of the same molecule?
Its melting point is 200 to 202 °C.

With `c1cncc(Oc2ccc3c(c2)CCC2(CCN(C4CCC4)CC2)O3)c1` [Example 257] as the molecule, how does the Ki (human H3 receptor; [2]) read?
Its Ki is less than 200 nM.

And the Ki [1, 3]?
Its Ki is less than 200 nM.

What about the melting point of the same molecule?
Its melting point is 255 to 257 °C.

Which Ki (human H3 receptor; [4]) does the source give for `COCCNC(=O)c1ccc(Oc2ccc3c(c2)CCC2(CCN(C4CCC4)CC2)O3)nc1` [Example 416] here?
Its Ki is less than 200 nM.

And the Ki [1, 5]?
Its Ki is less than 200 nM.

What about the melting point of the same molecule?
Its melting point is 235 to 237 °C.

Which results are given for `FC1(F)CCN(c2ccc3c(c2)CCC2(CCN(C4CCC4)CC2)O3)C1` [Example 413]?
Ki (human H3 receptor; [4]): < 200 nM; Ki [1, 5]: < 200 nM; melting point: > 275 °C (dec.)

For `Cc1cc(C(=O)Nc2ccc3c(c2)COC2(CCN(C4CCC4)CC2)O3)cc(Cl)n1` [Example 196], which Ki (human H3 receptor; [2]) is on record?
Its Ki is less than 200 nM.

And the Ki [1, 3]?
The Ki was less than 200 nM.

What about the melting point of the same molecule?
The melting point was 179 to 180 °C.

Which results are given for `COc1ccc(-c2ccc3c(c2)CCC2(CCN(C4CCC4)CC2)O3)c(C)n1` [Example 797]?
Ki (human H3 receptor; [6]): < 200 nM; Ki [1, 7]: < 200 nM; melting point: 72 to 73 °C

Source: patent US8513232B2, “Substituted spirocyclic piperidine derivatives as histamine-3 (H3) receptor ligands” (Cephalon, Inc., priority 2008, dated 2013)
